{"source": "patent US20220054658A1", "about": "“CONJUGATES” (Transfection Holdings Limited, priority 2018, published 2022)", "key": {"C. elegans": {"tested_on": "C. elegans", "test": "Protein uptake in C. elegans (phiLOV protein conjugates)", "assay_type": "in vivo, Caenorhabditis elegans", "conditions": "positive control", "method": "The effective PhiLOV protein conjugate in M9 buffer was taken from the chemical ligation and purification experiments. The amount of M9 buffer added was determined by the final concentration required. Nematodes (30-40 per protein sample to be analysed) were picked and added to the protein solution, and the resulting suspension was treated with OP50 E. coli solution for nematode sustenance. The nematode suspension was incubated at 20° C. in the dark, and covered with aluminium foil.\nAliquots (10 to 25 μL) were taken at 24, 48 and 72 h. and transferred into a new Eppendorf tube at each time point and diluted with M9 buffer (200 μL). The new suspension was placed in ice (for 1-2 min) and then centrifuged at 10.000 rpm for 1 min. The supernatant was removed and the concentrated nematodes were washed again (2×200 μL). In the final wash, a residual volume (approx. 30 μL) was left with the nematodes.\nFor the microscopy studies, a 1.5% agarose solution in water was warmed up for 1-1.5 min in a standard household microwave (Power 4). Two drops of the agarose solution were placed on a glass slide and covered with another glass slide. After 1 min, the two slides were taken apart from each other carefully. On the slide where the agarose remained, 15-20 μL of the final C. elegans solution was placed. To this was added a 20 mM sodium azide solution (5 μL) to inhibit nematode mobility.\nVaseline was placed around the agarose area before replacing the top cover slip. The cover slips were not pressed together. The nematodes were then analysed using a Zeiss Axiskop 2 Plus microscope using a Hamamatsu Orca-ER (CA 742-95) camera. The images were resolved using OpenLab on a Mac operating system.\nFeeding was repeated after 48 h. with addition of 2 μL of OP50 bacteria for feeding purposes, and the worm incubation was continued in the dark at […].\nUsing the approach described above, 11 protein conjugates were tested for their ability to deliver the phiLOV protein into nematodes. […] The location and efficiency of the delivery can be modulated by small structural modifications to the delivery vehicle, as shown by compounds P1-P11 (including negative control, positive control using compound 1 and untagged phiLOV protein control)."}, "T. annulata": {"tested_on": "T. annulata", "test": "Theileria annulata testing: uptake", "assay_type": "cell-based", "conditions": "1 hour, 37° C.", "method": "T. annulata were cultured using RPMI 1640 with 10% Albumax II (Thermo-Fisher) serum. A standard hemocytometer was used to calculate the concentration of cells in the parent culture. […] For each compound and concentration to be tested, 2 mL of the culture were centrifuged at 1,000 rpm for 5 minutes. The medium was removed before the cells were resuspended in 950 μL of complete medium containing the compound to be tested at the desired concentration. This was prepared from a 100 mM stock solution of compound in DMSO. Once the cells were resuspended they were transferred to a 5 well plate (1 mL capacity per well). They were then incubated for 1 hour at 37° C. in an atmosphere of 5% CO2 in air. After the incubations were complete the contents of each well were transferred to a 10 mL centrifuge tube. Cold RPMI 1640 (Thermofisher) or HBSS added to obtain a volume of 5 mL. The suspension was then centrifuged at 1,000 rpm and at 4° C. for 5 minutes. […] After the final washing the pellet of cells was resuspended in a minimum amount of RPMI 1640 and then spotted onto a glass slide. The slide was then covered with a cover slip and analysed using Olympus BX60 UV microscope system with a Spot RT3 camera and Spot Image software with a FITC fluorescent filter."}, "[1]": {"tested_on": "M. tuberculosis strain H37Rv", "test": "Uptake test in M. tuberculosis", "assay_type": "cell-based, Mycobacterium tuberculosis", "conditions": "50 μg/mL (~80 μM), room temperature, 45 min"}}, "note": "Entries after “also recorded” stand apart in the source; their conditions may differ.", "data": [{"smiles": "CC1=CC(C)=[N+]2C1=Cc1ccc(CCCn3cc(CCNC(=O)/C=C/NC(=O)[C@@H]4OC(C)(C)OCC4(C)C)nn3)n1[B-]2(F)F", "note": "[Compound 1, (R,E)-N-((((3-[4,4-Difluoro-5,7-dimethyl-4-bora-3a,4a-diaza-s-indacene-3-yl]propyl)-1H-1,2,3-triazol-4-yl)ethylamino)-3-oxoprop-1-enyl)-2,2,5,5-tetramethyl-1,3-dioxane-4-carboxamide]", "values": [{"measurement": "location of fluorescence in C. elegans", "setting": "C. elegans; 24 h incubation", "result": "fluorescence could be observed in the pharynx, gut lumen and gut cells of both adults and larval stages of C. elegans"}, {"measurement": "location of fluorescence in C. elegans", "setting": "C. elegans; 48 h incubation", "result": "fluorescence was still localised in the pharynx, gut lumen and gut cells of both adults and larvae"}, {"measurement": "location of fluorescence in C. elegans", "setting": "C. elegans; 72 h incubation", "result": "fluorescence was still localised in the pharynx, gut lumen and gut cells of both adults and larvae"}, {"measurement": "state of adult nematodes", "setting": "C. elegans; 72 h point (same seen with M9 buffer negative control)", "result": "the adult nematodes were dead"}, {"measurement": "uptake in T. annulata", "setting": "T. annulata", "result": "very limited uptake"}, {"measurement": "uptake in M. tuberculosis (fluorescence intensity / microscopy)", "setting": "[1]", "result": "preferred over their S counterparts; also recorded: highest fluorescence signals"}]}]}
